# Reference: ChEMBL document CHEMBL2151017, “Inhibition of α-glucosidase and α-amylase by diaryl derivatives of imidazole-thione and 1,2,4-triazole-thiol” (Eur J Med Chem, 2011)
# Activity calls are given as the source filed them. No cut-off for these calls is given here.
# How the values were obtained:
# [1] = test system: Oryctolagus cuniculus; experiment: In vivo inhibition of alpha-amylase in po dosed Spanish V-line rabbit using starch as substrate at after 24 hrs; assay type: functional, organism-based
# [2] = test system: Oryctolagus cuniculus; experiment: In vivo inhibition of Spanish V-line rabbit liver alpha-amylase assessed as specific enzyme activity per mg protein using starch as substrate at 10% LD50, po after 48 hrs; assay type: functional
# [3] = test system: Oryctolagus cuniculus; experiment: In vivo inhibition of Spanish V-line rabbit liver alpha-amylase assessed as specific enzyme activity per mg protein using starch as substrate at 10% LD50, po after 24 hrs; assay type: functional
# [4] = species on record: Oryctolagus cuniculus; experiment: Inhibition of Spanish V-line rabbit liver alpha-amylase using starch as substrate assessed per mg protein at 36 uM by Lineweaver-Burk plot ( RVb = 9.0 +/- 0.8 10^-3 uM/min/mg protein )
# [5] = test system: Oryctolagus cuniculus; experiment: In vivo inhibition of Spanish V-line rabbit liver alpha-amylase assessed as specific enzyme activity per mg protein using starch as substrate at 10% LD50, po after 120 hrs; assay type: functional
# [6] = Inhibition of Spanish V-line rabbit liver alpha-glucosidase using maltose as substrate after 5 mins by spectrophotometry; set-up: species or system Oryctolagus cuniculus
# [7] = test system: Oryctolagus cuniculus; experiment: In vivo inhibition of Spanish V-line rabbit alpha-amylase using starch as substrate at 25% LD50, po after 24 hrs relative to control; assay type: functional
# [8] = species on record: Oryctolagus cuniculus; experiment: Reversible Inhibition of Spanish V-line rabbit liver alpha-glucosidase using maltose as substrate compound preincubated for 60 mins by dialysis method
# [9] = Toxicity in po dosed Spanish V-line rabbit assessed as mortality after 24 hrs; assay type: organism-based, Oryctolagus cuniculus; details: in vivo
# [10] = species on record: Oryctolagus cuniculus; experiment: Inhibition of Spanish V-line rabbit liver alpha-glucosidase using maltose as substrate assessed per mg protein at 12 uM by Lineweaver-Burk plot ( RVb = 55 +/- 5.2 10^-3 uM/min/mg protein )
# [11] = test system: Oryctolagus cuniculus; experiment: In vivo inhibition of Spanish V-line rabbit liver alpha-glucosidase assessed as specific enzyme activity per mg protein using maltose as substrate at 10% LD50, po after 120 hrs; assay type: functional
# [12] = test system: Oryctolagus cuniculus; experiment: In vivo inhibition of alpha-glucosidase in po dosed Spanish V-line rabbit using maltose as substrate after 24 hrs; assay type: functional, organism-based
# [13] = species on record: Oryctolagus cuniculus; experiment: Inhibition of Spanish V-line rabbit liver alpha-glucosidase using maltose as substrate assessed per mg protein at 36 uM by Lineweaver-Burk plot ( RVb = 55 +/- 5.2 10^-3 uM/min/mg protein )
# [14] = test system: Oryctolagus cuniculus; experiment: In vivo inhibition of Spanish V-line rabbit liver alpha-amylase assessed as specific enzyme activity per mg protein using starch as substrate at 10% LD50, po after 96 hrs; assay type: functional
# [15] = species on record: Oryctolagus cuniculus; experiment: Inhibition of Spanish V-line rabbit liver alpha-amylase using starch as substrate assessed per mg protein at 12 uM by Lineweaver-Burk plot ( RVb = 9.0 +/- 0.8 10^-3 uM/min/mg protein )
# [16] = Non-competitive inhibition of Spanish V-line rabbit liver alpha-amylase using starch as substrate by Lineweaver-Burk plot analysis; set-up: species or system Oryctolagus cuniculus
# [17] = species on record: Oryctolagus cuniculus; experiment: Inhibition of Spanish V-line rabbit liver alpha-amylase using starch as substrate assessed per mg protein at 48 uM by Lineweaver-Burk plot ( RVb = 9.0 +/- 0.8 10^-3 uM/min/mg protein )
# [18] = species on record: Oryctolagus cuniculus; experiment: Reversible Inhibition of Spanish V-line rabbit liver alpha-amylase using starch as substrate compound preincubated for 60 mins by dialysis method
# [19] = test system: Oryctolagus cuniculus; experiment: In vivo inhibition of Spanish V-line rabbit liver alpha-glucosidase assessed as specific enzyme activity per mg protein using maltose as substrate at 10% LD50, po after 96 hrs; assay type: functional
# [20] = species on record: Oryctolagus cuniculus; experiment: Non-competitive inhibition of Spanish V-line rabbit liver alpha-amylase using starch as substrate
# [21] = test system: Oryctolagus cuniculus; experiment: In vivo inhibition of Spanish V-line rabbit liver alpha-glucosidase assessed as specific enzyme activity per mg protein using maltose as substrate at 10% LD50, po after 72 hrs; assay type: functional
# [22] = test system: Oryctolagus cuniculus; experiment: In vivo inhibition of Spanish V-line rabbit liver alpha-amylase assessed as specific enzyme activity per mg protein using starch as substrate at 10% LD50, po after 16 hrs; assay type: functional
# [23] = test system: Oryctolagus cuniculus; experiment: In vivo inhibition of Spanish V-line rabbit alpha-glucosidase using maltose as substrate at 25% LD50, po after 24 hrs relative to control; assay type: functional
# [24] = Non-competitive inhibition of Spanish V-line rabbit liver alpha-amylase using starch as substrate by Dixon plot analysis; set-up: species or system Oryctolagus cuniculus
# [25] = test system: Oryctolagus cuniculus; experiment: In vivo inhibition of Spanish V-line rabbit liver alpha-glucosidase assessed as specific enzyme activity per mg protein using maltose as substrate at 10% LD50, po after 24 hrs; assay type: functional
# [26] = test system: Oryctolagus cuniculus; experiment: In vivo inhibition of Spanish V-line rabbit liver alpha-glucosidase assessed as specific enzyme activity per mg protein using maltose as substrate at 10% LD50, po after 16 hrs; assay type: functional
# [27] = Non-competitive inhibition of Spanish V-line rabbit liver alpha-glucosidase using maltose as substrate by Lineweaver-Burk plot analysis; set-up: species or system Oryctolagus cuniculus
# [28] = test system: Oryctolagus cuniculus; experiment: In vivo inhibition of Spanish V-line rabbit liver alpha-amylase assessed as specific enzyme activity per mg protein using starch as substrate at 10% LD50, po after 72 hrs; assay type: functional
# [29] = species on record: Oryctolagus cuniculus; experiment: Non-competitive inhibition of Spanish V-line rabbit liver alpha-glucosidase using maltose as substrate
# [30] = Non-competitive inhibition of Spanish V-line rabbit liver alpha-glucosidase using maltose as substrate by Dixon plot analysis; set-up: species or system Oryctolagus cuniculus
# [31] = species on record: Oryctolagus cuniculus; experiment: Inhibition of Spanish V-line rabbit liver alpha-amylase using starch as substrate assessed per mg protein at 24 uM by Lineweaver-Burk plot ( RVb = 9.0 +/- 0.8 10^-3 uM/min/mg protein )
# [32] = Inhibition of Spanish V-line rabbit liver alpha-amylase using starch as substrate after 5 mins by spectrophotometry; set-up: species or system Oryctolagus cuniculus
# [33] = test system: Oryctolagus cuniculus; experiment: In vivo inhibition of Spanish V-line rabbit liver alpha-amylase assessed as specific enzyme activity per mg protein using starch as substrate at 10% LD50, po after 8 hrs; assay type: functional
# [34] = test system: Oryctolagus cuniculus; experiment: In vivo inhibition of Spanish V-line rabbit liver alpha-glucosidase assessed as specific enzyme activity per mg protein using maltose as substrate at 10% LD50, po after 8 hrs; assay type: functional
# [35] = species on record: Oryctolagus cuniculus; experiment: Inhibition of Spanish V-line rabbit liver alpha-glucosidase using maltose as substrate assessed per mg protein at 24 uM by Lineweaver-Burk plot ( RVb = 55 +/- 5.2 10^-3 uM/min/mg protein )
# [36] = species on record: Oryctolagus cuniculus; experiment: Inhibition of Spanish V-line rabbit liver alpha-glucosidase using maltose as substrate assessed per mg protein at 48 uM by Lineweaver-Burk plot ( RVb = 55 +/- 5.2 10^-3 uM/min/mg protein )
# [37] = test system: Oryctolagus cuniculus; experiment: In vivo inhibition of Spanish V-line rabbit liver alpha-glucosidase assessed as specific enzyme activity per mg protein using maltose as substrate at 10% LD50, po after 48 hrs; assay type: functional
# [38] = species on record: Oryctolagus cuniculus; experiment: Inhibition of Spanish V-line rabbit liver alpha-amylase using starch as substrate assessed per mg protein at 64 uM by Lineweaver-Burk plot ( RVb = 9.0 +/- 0.8 10^-3 uM/min/mg protein )
# [39] = species on record: Oryctolagus cuniculus; experiment: Inhibition of Spanish V-line rabbit liver alpha-glucosidase using maltose as substrate assessed per mg protein at 64 uM by Lineweaver-Burk plot ( RVb = 55 +/- 5 10^-3 uM/min/mg protein )
# [40] = species on record: Oryctolagus cuniculus; experiment: Inhibition of Spanish V-line rabbit liver alpha-glucosidase using maltose as substrate assessed per mg protein at 32 uM by Lineweaver-Burk plot ( RVb = 55 +/- 5 10^-3 uM/min/mg protein )
# [41] = species on record: Oryctolagus cuniculus; experiment: Inhibition of Spanish V-line rabbit liver alpha-amylase using starch as substrate assessed per mg protein at 32 uM by Lineweaver-Burk plot ( RVb = 9.0 +/- 0.8 10^-3 uM/min/mg protein )
# [42] = species on record: Oryctolagus cuniculus; experiment: Inhibition of Spanish V-line rabbit liver alpha-amylase using starch as substrate
# [43] = Competitive inhibition of Spanish V-line rabbit liver alpha-glucosidase using maltose as substrate by Dixon plot analysis; set-up: species or system Oryctolagus cuniculus
# [44] = species on record: Oryctolagus cuniculus; experiment: Inhibition of Spanish V-line rabbit liver alpha-glucosidase using maltose as substrate assessed per mg protein at 48 uM by Lineweaver-Burk plot ( RVb = 55 +/- 5 10^-3 uM/min/mg protein )
# [45] = species on record: Oryctolagus cuniculus; experiment: Competitive inhibition of Spanish V-line rabbit liver alpha-glucosidase using maltose as substrate
# [46] = species on record: Oryctolagus cuniculus; experiment: Inhibition of Spanish V-line rabbit liver alpha-glucosidase using maltose as substrate assessed per mg protein at 16 uM by Lineweaver-Burk plot ( RVb = 55 +/- 5 10^-3 uM/min/mg protein )
# [47] = species on record: Oryctolagus cuniculus; experiment: Inhibition of Spanish V-line rabbit liver alpha-amylase using starch as substrate assessed per mg protein at 16 uM by Lineweaver-Burk plot ( RVb = 9.0 +/- 0.8 10^-3 uM/min/mg protein )
# [48] = species on record: Oryctolagus cuniculus; experiment: Inhibition of Spanish V-line rabbit liver alpha-glucosidase using maltose as substrate assessed per mg protein at 48 uM by Lineweaver-Burk plot ( RVb = 53 +/- 5 10^-3 uM/min/mg protein )
# [49] = species on record: Oryctolagus cuniculus; experiment: Inhibition of Spanish V-line rabbit liver alpha-glucosidase using maltose as substrate assessed per mg protein at 64 uM by Lineweaver-Burk plot ( RVb = 53 +/- 5 10^-3 uM/min/mg protein )
# [50] = species on record: Oryctolagus cuniculus; experiment: Inhibition of Spanish V-line rabbit liver alpha-glucosidase using maltose as substrate assessed per mg protein at 32 uM by Lineweaver-Burk plot ( RVb = 53 +/- 5 10^-3 uM/min/mg protein )
# [51] = species on record: Oryctolagus cuniculus; experiment: Inhibition of Spanish V-line rabbit liver alpha-glucosidase using maltose as substrate assessed per mg protein at 16 uM by Lineweaver-Burk plot ( RVb = 53 +/- 5 10^-3 uM/min/mg protein )
# [52] = Competitive inhibition of Spanish V-line rabbit liver alpha-glucosidase using maltose as substrate by Lineweaver-Burk plot analysis; set-up: species or system Oryctolagus cuniculus
SMILES,inhibition [1],Activity [2],Activity [3],Activity [5],IC50 [6],inhibition (INH) [7],inhibition [8],LD50 at 24 h [9],Activity [11],inhibition [12],Activity [14],Vmax [17],inhibition [18],Activity [19],Activity [21],Activity [22],inhibition (INH) [23],Activity [25],Activity [26],Activity [28],also measured
S=C1N=C(c2ccccc2)C(c2ccccc2)=N1,Dose-dependent effect,2.9 µM/min,2.3 µM/min,4.4 µM/min,56 µM,53%,Active,204 mg/kg,23.5 µM/min,Dose-dependent effect,4.3 µM/min,5.5 nM/min,Active,19.3 µM/min,16.9 µM/min,3.1 µM/min,62%,14.3 µM/min,15.2 µM/min,3.3 µM/min,Vmax [4]: 6.3 nM/min; Vmax [10]: 41 nM/min; Vmax [13]: 27 nM/min; Vmax [15]: 8.3 nM/min; Ki [16]: 63 µM; inhibition [20]: Dose-dependent effect; Ki [24]: 60 µM; Ki [27]: 35 µM; inhibition [29]: Dose-dependent effect; Ki [30]: 43 µM; Vmax [31]: 7.1 nM/min; IC50 [32]: 47 µM; Activity [33]: 3.8 µM/min; Activity [34]: 17.6 µM/min; Vmax [35]: 33 nM/min; Vmax [36]: 2.4 nM/min; Activity [37]: 15.6 µM/min
Oc1ccccc1-c1nnc(S)n1-c1ccccc1,Dose-dependent effect,4.4 µM/min,4.3 µM/min,5.1 µM/min,105 µM,27%,Active,155 mg/kg,18.8 µM/min,Dose-dependent effect,4.8 µM/min,9.5 nM/min,Active,16.2 µM/min,15.6 µM/min,4.4 µM/min,57%,13.1 µM/min,14.2 µM/min,4.6 µM/min,Vmax [38]: 8.9 nM/min; Vmax [39]: 10.2 nM/min; Vmax [40]: 15.6 nM/min; Vmax [41]: 9.2 nM/min; inhibition [42]: Dose-dependent effect; Ki [43]: 50.8 µM; Vmax [44]: 12.5 nM/min; inhibition [45]: Dose-dependent effect; Activity [33]: 4.8 µM/min; Activity [34]: 15.6 µM/min; Vmax [46]: 16.6 nM/min; Activity [37]: 14.2 µM/min; Vmax [47]: 9.3 nM/min
Sc1nnc(-c2ccccc2)n1-c1ccccc1,Dose-dependent effect,4 µM/min,3.7 µM/min,4.7 µM/min,67 µM,46%,Active,107 mg/kg,19.9 µM/min,Dose-dependent effect,4.6 µM/min,5.4 nM/min,Active,19.8 µM/min,18.5 µM/min,4.1 µM/min,50%,15.4 µM/min,16.7 µM/min,4.3 µM/min,Vmax [48]: 16.6 nM/min; Vmax [38]: 5.3 nM/min; Vmax [49]: 12.5 nM/min; Vmax [50]: 18 nM/min; Vmax [41]: 6.3 nM/min; Vmax [51]: 20 nM/min; Ki [16]: 72 µM; Ki [52]: 42 µM; inhibition [20]: Dose-dependent effect; Ki [43]: 38 µM; Ki [24]: 65 µM; inhibition [45]: Dose-dependent effect; IC50 [32]: 73 µM; Activity [33]: 4.5 µM/min; Activity [34]: 18.6 µM/min; Activity [37]: 16.1 µM/min; Vmax [47]: 8 nM/min
